The text below walks through data of ChEMBL document CHEMBL1759855, “Synthesis and innate immunosuppressive effect of 1,2-cyclopentanediol derivatives” (Eur J Med Chem, 2011).

The structures appear in SMILES notation.

The test system of one data set is Drosophila. The experiment in a line: Ex vivo immunosuppressive activity in Drosophila larvae assessed as inhibition of IMD signaling pathway by beta-galactosidase reporter gene assay. Type of data set: functional, organism-based. On the technique in general: In a reporter assay the amount or activity of a reporter protein is the signal.
A short description of data set [1]: Cytotoxicity against Drosophila S2 cells by MTT assay. The following applies: Drosophila melanogaster. Type of data set: cell-based. A general note: Tetrazolium dyes change colour on reduction, which living cells bring about.
In data set [2] the test system is HUVEC. The experiment in a line: Immunosuppressive activity in human HUVEC assessed as inhibition of TNF-alpha-induced IL8 production at 50 ug/mL after 12 hrs by ELISA relative to control. Type of data set: functional. Further details: scale not given: the % may be the effect or the level left. A general note: In an ELISA, binding on a coated surface is turned into a signal by an enzyme label.

The subject of data set [3] is HUVEC. The experiment in a line: Cytotoxicity against human HUVEC assessed as cell viability at 50 ug/ml. Type of data set: cell-based.

For the compound `C/C=C/[C@H]1C[C@@H](O)[C@@H](O)C1`, the EC50 (as a rule, the concentration giving half of the maximal effect) was 100 µM with Drosophila and more than 350 µM in data set [1].

For `C/C=C/[C@@H]1C[C@@H](O)[C@@H](O)C1`, the EC50 in the data set with Drosophila was 350 µM; in data set [1], more than 350 µM.

Regarding `CCC[C@H]1C[C@@H](O)[C@@H](O)C1`, the EC50 in the data set on Drosophila is 100 µM; in data set [1], more than 350 µM.

Take `CCCCCC[C@H]1C[C@@H](O)[C@@H](O)C1`: the EC50 (with Drosophila; in data set [1]) was 110 µM each time.

Take `CCOC(=O)/C=C/[C@H]1C[C@@H](O)[C@@H](O)C1`: the EC50 was 100 µM in the data set on Drosophila and more than 350 µM in data set [1].

As to `COC(=O)/C=C/[C@H]1C[C@@H](O)[C@@H](O)C1`, the 50% effective concentration (EC50) (in the data set on Drosophila; in data set [1]) was more than 350 µM each time.

For the compound `CCCCCCOC(=O)/C=C/[C@H]1C[C@@H](O)[C@@H](O)C1`, the concentration giving a half-maximal response (EC50) was 150 µM with Drosophila and more than 350 µM in data set [1].

As to `O=C(/C=C/[C@H]1C[C@@H](O)[C@@H](O)C1)Oc1ccccc1`, the EC50 was 100 µM with Drosophila and more than 200 µM in data set [1].

With `O=C(O)/C=C/[C@H]1C[C@@H](O)[C@@H](O)C1`, the concentration giving a half-maximal response (EC50) in the data set on Drosophila was 110 µM; in data set [1], more than 350 µM.

In the case of `CN(C)C(=O)/C=C/[C@H]1C[C@@H](O)[C@@H](O)C1`, the 50% effective concentration (EC50) with Drosophila is 120 µM; in data set [1] it was more than 250 µM.

For the compound `O=C(/C=C/[C@H]1C[C@@H](O)[C@@H](O)C1)Nc1ccccc1`, the Activity in the data set with HUVEC [2] is on record as 70%; in the data set with HUVEC [3] it was “Non-toxic”. The EC50 in the data set on Drosophila was 4.5 µM; in data set [1] it was more than 200 µM.

Take `NC(=O)/C=C/[C@H]1C[C@@H](O)[C@@H](O)C1`: the half-maximal effective concentration (EC50) in the data set with Drosophila is 19 µM; in data set [1], more than 250 µM.

On to `CNC(=O)/C=C/[C@H]1C[C@@H](O)[C@@H](O)C1`, for which the Activity in the data set with HUVEC [2] is 70%; with HUVEC [3] it was “Non-toxic”. Also, the concentration giving a half-maximal response (EC50) in the data set with Drosophila was 5.4 µM; in data set [1] it was more than 250 µM.

Take `CCNC(=O)/C=C/[C@H]1C[C@@H](O)[C@@H](O)C1`: the EC50 in the data set with Drosophila was 250 µM; in data set [1], more than 250 µM.

Take `CCCCNC(=O)/C=C/[C@H]1C[C@@H](O)[C@@H](O)C1`: the half-maximal effective concentration (EC50) (with Drosophila; in data set [1]) was more than 250 µM each time.

Turning to `O=C(/C=C/[C@H]1C[C@@H](O)[C@@H](O)C1)NC1CC1`, the 50% effective concentration (EC50) is 240 µM in the data set on Drosophila and more than 250 µM in data set [1].

Turning to `O=C(/C=C/[C@H]1C[C@@H](O)[C@@H](O)C1)NO`, the EC50 in the data set with Drosophila was 13 µM; in data set [1], more than 250 µM.

Turning to `O=C(/C=C/[C@H]1C[C@@H](O)[C@@H](O)C1)N1CCCCC1`, the EC50 with Drosophila is 180 µM; in data set [1], more than 250 µM.

Regarding `O=C(/C=C/[C@H]1C[C@@H](O)[C@@H](O)C1)Nc1ccc(Cl)cc1`, the half-maximal effective concentration (EC50) (with Drosophila; in data set [1]) was more than 180 µM in each case.

As to `O=C(/C=C/[C@H]1C[C@@H](O)[C@@H](O)C1)Nc1ccc(Cl)c(Cl)c1`, the 50% effective concentration (EC50) in the data set with Drosophila is 56 µM; in data set [1], more than 160 µM.

Regarding `O=C(/C=C/[C@H]1C[C@@H](O)[C@@H](O)C1)Nc1ccc(F)cc1`, the half-maximal effective concentration (EC50) (in the data set on Drosophila; in data set [1]) was more than 180 µM in each case.

In the case of `O=C(/C=C/[C@H]1C[C@@H](O)[C@@H](O)C1)Nc1ccc(C(F)(F)F)cc1`, the concentration giving a half-maximal response (EC50) (in the data set with Drosophila; in data set [1]) was more than 160 µM throughout.

With `Cc1ccc(NC(=O)/C=C/[C@H]2C[C@@H](O)[C@@H](O)C2)cc1`, the EC50 in the data set on Drosophila was 190 µM; in data set [1], more than 190 µM.

For `COc1ccc(NC(=O)/C=C/[C@H]2C[C@@H](O)[C@@H](O)C2)cc1`, in the data set on HUVEC [3], the Activity entry is on record as “Toxic”. Further, the concentration giving a half-maximal response (EC50) is 3.1 µM in the data set with Drosophila and more than 180 µM in data set [1].

Consider `CC(C)(C)c1ccc(NC(=O)/C=C/[C@H]2C[C@@H](O)[C@@H](O)C2)cc1`, for which, in the data set on HUVEC [3], the Activity entry was “Toxic”. For the same compound, the EC50 with Drosophila was 4.4 µM; in data set [1], more than 180 µM.

As for `CC(=O)c1ccc(NC(=O)/C=C/[C@H]2C[C@@H](O)[C@@H](O)C2)cc1`, the half-maximal effective concentration (EC50) (in the data set with Drosophila; in data set [1]) was more than 180 µM in each case.

Regarding `O=C(/C=C/[C@H]1C[C@@H](O)[C@@H](O)C1)Nc1ccc([N+](=O)[O-])cc1`, the EC50 (in the data set on Drosophila; in data set [1]) was more than 170 µM in each case.

Turning to `CN(C)c1ccc(NC(=O)/C=C/[C@H]2C[C@@H](O)[C@@H](O)C2)cc1`, the EC50 in the data set on Drosophila was 19 µM; in data set [1] it was more than 170 µM.

For the compound `O=C(/C=C/[C@H]1C[C@@H](O)[C@@H](O)C1)Nc1ccncc1`, the EC50 was more than 20 µM in the data set on Drosophila and more than 200 µM in data set [1].

For `CNC(=O)/C=C/C(CCO)CCO`, the concentration giving a half-maximal response (EC50) (in the data set on Drosophila; in data set [1]) was more than 250 µM throughout.

Regarding `CNC(=O)CC[C@H]1C[C@@H](O)[C@@H](O)C1`, the 50% effective concentration (EC50) was 15 µM in the data set on Drosophila and more than 250 µM in data set [1].

Regarding `CNC(=O)C[C@H]1C[C@@H](O)[C@@H](O)C1`, the results for the 50% effective concentration (EC50) (in the data set with Drosophila; in data set [1]) were 55 µM and more than 250 µM, respectively.

With `CNC(=O)CCC[C@H]1C[C@@H](O)[C@@H](O)C1`, the Activity with HUVEC [2] is 70%; in the data set with HUVEC [3], “Non-toxic”. For the same compound, the EC50 in the data set with Drosophila was 8.4 µM; in data set [1], more than 250 µM.

Turning to `CNC(=O)CCCC[C@H]1C[C@@H](O)[C@@H](O)C1`, the concentration giving a half-maximal response (EC50) (in the data set with Drosophila; in data set [1]) was more than 250 µM in each case.

As to `CNS(=O)(=O)/C=C/[C@H]1C[C@@H](O)[C@@H](O)C1`, the Activity was 70% with HUVEC [2] and “Non-toxic” in the data set on HUVEC [3]. Besides, the results for the EC50 (with Drosophila; in data set [1]) were 4 µM and more than 250 µM, respectively.
